# Assay results taken from article PMC10046377, “Inhibitors of the Oncogenic PA2G4-MYCN Protein-Protein Interface” (Cancers, 2023).
# Columns and labels:
# [1] = system: SK-N-BE(2)-C shMYCN cells; assay: Alamar Blue viability, Dox-inducible SK-N-BE(2)-C shMYCN cells; assay type: cell-based; details: Homo sapiens, 72 h, 72 h treatment
# From the text: The MYCN amplified neuroblastoma cell line SK-N-BE(2)-C was kindly provided by Professor June Biedler (Memorial Sloan Kettering Cancer Centre, New York, NY, USA), and Kelly was obtained from European Collection of Cell Cultures. The two normal lung fibroblast cell lines (MRC-5 and WI-38) were purchased from ATCC. SK-N-BE(2)-C shMYCN#2 doxycycline-inducible cell and Kelly shMYCN#2 doxycycline-inducible cell were custom-made by GenScript (Piscataway, NJ, USA). SK-N-BE(2)-C, SK-N-BE(2)-C shMYCN#2, and SHEP MYCN3 doxycycline-inducible cells were maintained in Dulbecco’s modified Eagle’s medium (DMEM) (Invitrogen, Life Technologies, Waltham, MA, USA) with 10% foetal calf serum (FCS). Kelly and Kelly shMYCN#2 doxycycline-inducible cell were cultured in Roswell Park Memorial Institute (RPMI) 1640 (Invitrogen, Life Technologies) with 10% FCS. MRC-5 and WI-38 were cultured in Alpha-MEM media (Invitrogen, Life Technologies) with 10% FCS. All cells were not cultured for more than 2 months. All used cell lines were authenticated by Cell Bank Australia (Westmead, NSW, Australia) as being free from mycoplasma, and cultured at 37 °C and 5% CO2 in a humidifier incubator.
# Cell viability was determined by the Alamar Blue assay (75 mg resazurin, 12.5 mg methylene blue, 164.5 mg potassium hexacyanoferrate (III), 211 mg potassium hexacyanoferrate (II) trihydrate in 500 mL of phosphate buffered saline). After 6 h incubation with Alamar Blue, the change of fluorescence was measured by Victor 3 multilabel Plate Reader (Perkin Elmer Australia, Melburne, Australia) at an excitation wavelength of 560 nm and an emission wavelength of 590 nm.
# Next, we examined whether #5333 and #5338 treatment for 48 h affected the levels of WS6 target proteins, PA2G4, and MYCN in neuroblastoma cells. […] To determine the specificity of #5333 and #5338 for MYCN, we used two different doxycycline (Dox)-inducible neuroblastoma cell systems for repression of MYCN expression: shMYCN SK-N-BE(2)-C (MYCN-amplified) and shMYCN Kelly (MYCN-amplified) cell lines. Cell viability was measured following #5333 and #5338 treatments for 48–72 h. […] In addition, the specificity and efficacy of #5333 and #5338 were also tested in MYCN non-amplified SHEP MYCN3 cell lines with Dox-inducible MYCN induction. Cell viability was measured following #5333, #5338, or WS6 treatments for 72 h.
# Figure 3 Compounds #5333 and #5338 functionally interact with MYCN and PA2G4 in neuroblastoma cells. (A) Western blot showing a decrease in protein expression due to #5333 or #5338 drug treatment. (B) Alamar Blue assays comparing cell viability of SK-N-BE(2)-C after Doxycycline (Dox)-inducible MYCN knockdown, followed by 72 h treatment with #5333 or #5338. […]
# [2] = system: Kelly cells; assay: Colony formation assay, Kelly; assay type: cell-based, human; details: increasing concentrations, 2 weeks
# Protocol: A total of 250 SK-N-BE(2)-C and 500 Kelly cells were seeded in 6-well plates and treated with #5333 and #5338 24 h after seeding. Once colonies had formed (14 days for Kelly, 10 days for SK-N-BE(2)-C), cells were fixed and stained with 0.5% crystal violet in 50% methanol and washed twice to remove the unincorporated stain. The photos of colonies were taken by ChemiDoc MP Imaging System (Bio-Rad, South Granville, NSW, Australia). Stained colonies were counted, and colony size was measured using Image J software.
# We treated human neuroblastoma tumour cell lines with high MYCN and PA2G4 expression (Kelly and SK-N-BE(2)-C), using increasing concentrations of #5333 or #5338, and measured the ability of cells to proliferate and form colonies in vitro over 2 weeks. […] Next, we evaluated cell replication using the BrdU uptake assay in response to 30 μM drug treatment for 48 h (Figure 2C).
# [3] = system: neuroblastoma cells; assay: Annexin V/7-AAD flow cytometry apoptosis assay; assay type: cell-based, human; details: 48 h treatment
# Protocol: Neuroblastoma cell lines were seeded 24 h before treating with #5333 or #5338 for 48 h. The apoptotic and necrotic effects of the #5333 and #5338 treatment were determined by staining the cells with Annexin V PE/7-AAD using the Annexin V: PE Apoptosis Detection Kit (BD Biosciences, North Ryde, NSW, Australia), according to the manufacturer’s instruction. Stained cells were measured by flow cytometry using the BD LSRFortessa (BD Biosciences, NSW, Australia) and the data was analysed using the FlowJo software.
# To determine if the drug effects led to apoptosis, we stained cells with annexin-V/7-AAD, a marker of early and late apoptotic events (Figure 2D). […] To confirm the apoptotic status of the cells, protein expression of key apoptotic markers PARP/Cleaved PARP, Caspase 3/Cleaved caspase 3, BCL2, and Bax was measured (Figure 2E).
# [4] = Dox (2 μg/ml) +, MYCN - (knockdown)
"IC50 [1, 4] [µM]","IC50 ([1]; Dox (2 μg/ml) -, MYCN +) [µM]",SMILES,"colony number and size, Kelly [2]",apoptosis (annexin-V/7-AAD) [3]
46.6,25.2,Cc1cccc(Oc2cc(N3CCC(C(=O)NCc4cccc(Br)c4)CC3)ncn2)c1C [#5333],decreased both the number and size of the colonies,caused similar levels of apoptosis
32.3,24.1,Cc1cccc(Oc2cc(N3CCC(C(=O)N[C@@H](C)CCc4ccccc4)CC3)ncn2)c1C [#5338],decreased both the number and size of the colonies,caused similar levels of apoptosis
